# According to patent US5726165A, “Derivatives of 4-(2-aminoethyl)phenoxymethyl-phosphonic and -phosphinic acid and pharmaceutical and veterinary uses therefor” (SmithKline Beecham p.l.c., priority 1994, dated 1998):
# Where a name gives a salt, the structure may show the parent alone.
# How the values were obtained:
# human β3-adrenoceptor = molecular target: T1, human β3-adrenoceptor (Homo sapiens, UniProt P13945); assay: β3-adrenoceptor-mediated adenylyl cyclase activity (agonist); assay type: biochemical; details: CHO cell plasma membranes; for EC50: agonist concentration producing 50% activation of adenylyl cyclase, cAMP over 20 minutes, read-out: Beta-3 EC50; for Emax: maximum response relative to that produced by (-) isoprenaline, read-out: Beta-3 (IA), intrinsic activity
# T1 construct: expressed in transfected cells; host or cells: CHO cells (stably transfected subclones; membranes)
# Procedure: (§1) Antagonist and Agonist Activity at Human β1, β2, and β3 -Adrenoceptors.
# (§2) Subclones of CHO cells are stably transfected with each of the human β1, β2 and β3 -adrenoceptors^1. Cells are then disrupted by immersion in ice-cold lysis buffer (10 mM TRIS, 2 mM EDTA, pH 7.4) containing protease inhibitors leupeptin and benzamidine (5 μg/ml) and soyabean trypsin inhibitor (10 μg/ml). Membranes are prepared by the method of Bouvier el. al.^2 and stored in 1 ml aliquots in liquid N2 for future use.
# β3 -Adrenoceptor-Mediated Adenylyl Cyclase Activity
# Adenylyl cyclase activity is assayed by the method of Kirkham et. al.^3 by the addition of 40 μl (70-80 μg protein) to the incubation medium of the above CHO cell plasma membranes transfected with the human β3 -adrenoceptor. cAMP produced over 20 minutes is separated from ATP by the method of Salomon et al.^4. Agonist EC50 values and intrinsic activities are expressed as the concentration of agonist producing 50% activation of adenylyl cyclase and the maximum response produced by each agonist relative to that produced by (-) isoprenaline respectively.
# human β1-adrenoceptor = molecular target: T2, human β1-adrenoceptor (Homo sapiens, UniProt P08588); assay: Antagonist binding at β1-adrenoceptors, displacement of [125I]-iodocyanopindolol; details: CHO cell plasma membranes; from binding IC50 by Cheng-Prusoff equation; read-out: Beta-1 Ki
# T2 construct: expressed in transfected cells; host or cells: CHO cells (stably transfected subclones; membranes)
# Procedure: as §1, §2
# (§3) Antagonist Binding at β1, and β2 -Adrenoceptors
# (§4) Displacement of [^125 I]-iodocyanopindolol from CHO cell plasma membranes transfected with either the human β1, or β2 -adrenoceptors is carried out by the method of Blin et. al.^5. Ki values (nM) are calculated from the binding IC50 values for each agonist, using the Cheng-Prusoff equation.
# human β2-adrenoceptor = molecular target: T3, human β2-adrenoceptor (Homo sapiens, UniProt P07550); assay: Antagonist binding at β2-adrenoceptors, displacement of [125I]-iodocyanopindolol; details: CHO cell plasma membranes; from binding IC50 by Cheng-Prusoff equation; read-out: Beta-2 Ki
# T3 construct: expressed in transfected cells; host or cells: CHO cells (stably transfected subclones; membranes)
# Procedure: as §1, §2, §3, §4
# T1 sequence (P13945 whole entry): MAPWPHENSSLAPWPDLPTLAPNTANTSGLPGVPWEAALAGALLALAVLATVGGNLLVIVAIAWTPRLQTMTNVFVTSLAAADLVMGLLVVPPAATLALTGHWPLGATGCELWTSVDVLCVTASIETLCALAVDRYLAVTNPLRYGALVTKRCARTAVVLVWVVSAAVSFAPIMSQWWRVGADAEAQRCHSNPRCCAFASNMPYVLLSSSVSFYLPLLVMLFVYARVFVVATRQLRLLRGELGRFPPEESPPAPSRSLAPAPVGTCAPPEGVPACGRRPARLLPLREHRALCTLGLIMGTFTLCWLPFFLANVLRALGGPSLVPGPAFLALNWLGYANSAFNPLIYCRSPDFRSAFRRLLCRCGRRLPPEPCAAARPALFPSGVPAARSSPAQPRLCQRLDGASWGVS
# T2 sequence (P08588 whole entry): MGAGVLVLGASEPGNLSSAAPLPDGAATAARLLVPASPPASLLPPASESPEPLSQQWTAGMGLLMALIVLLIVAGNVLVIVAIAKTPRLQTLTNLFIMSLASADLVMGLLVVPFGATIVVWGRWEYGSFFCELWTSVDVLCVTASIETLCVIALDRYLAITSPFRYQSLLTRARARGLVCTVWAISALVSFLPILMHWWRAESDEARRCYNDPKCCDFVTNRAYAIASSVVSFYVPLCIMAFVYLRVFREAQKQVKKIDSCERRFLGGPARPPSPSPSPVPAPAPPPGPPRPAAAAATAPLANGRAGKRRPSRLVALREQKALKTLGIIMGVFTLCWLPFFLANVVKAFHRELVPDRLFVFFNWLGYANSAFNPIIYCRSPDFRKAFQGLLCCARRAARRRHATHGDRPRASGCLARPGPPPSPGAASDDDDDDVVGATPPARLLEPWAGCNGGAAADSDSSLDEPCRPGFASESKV
# T3 sequence (P07550 whole entry): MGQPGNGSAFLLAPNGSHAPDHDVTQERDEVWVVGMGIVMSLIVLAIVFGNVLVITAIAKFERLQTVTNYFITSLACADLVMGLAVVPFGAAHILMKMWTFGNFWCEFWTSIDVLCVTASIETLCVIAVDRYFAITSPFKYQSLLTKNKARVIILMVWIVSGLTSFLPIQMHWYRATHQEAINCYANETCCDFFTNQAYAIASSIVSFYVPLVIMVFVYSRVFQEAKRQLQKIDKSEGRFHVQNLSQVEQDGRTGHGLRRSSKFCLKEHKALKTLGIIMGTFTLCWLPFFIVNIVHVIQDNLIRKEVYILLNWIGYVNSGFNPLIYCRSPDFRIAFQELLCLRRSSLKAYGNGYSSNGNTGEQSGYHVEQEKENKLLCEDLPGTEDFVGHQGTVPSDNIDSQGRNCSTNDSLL
EC50 (human β3-adrenoceptor) [µM],Emax (human β3-adrenoceptor) [%],Ki (human β1-adrenoceptor) [µM],Ki (human β2-adrenoceptor) [µM],SMILES
1.1,70,21,10,"C[C@H](Cc1ccc(OCP(=O)(O)OCCCOCc2ccccc2)cc1)NC[C@H](O)COc1ccc(O)c(CO)c1 [Example 17, (SR)-4-{2-[2-Hydroxy-3-(4-hydroxy-3-hydroxymethylphenoxy)propylamino]propyl}phenoxymethylphosphonic acid, (3-benzyloxypropyl)ester, lithium salt]"
1.26,> 100,155,15,"C[C@H](Cc1ccc(OCP(=O)(O)c2ccccc2)cc1)NC[C@H](O)COc1ccc(O)c(CO)c1 (racemic) [Example 21, (SR)-4-{2-[2-Hydroxy-3-(4-hydroxy-3-hydroxymethylphenoxy)propylamino]propyl}phenoxymethyl-phenylphosphinic acid, lithium salt]"

SMILES,EC50 (human β3-adrenoceptor) [µM],Emax (human β3-adrenoceptor) [%],Ki (human β1-adrenoceptor) [µM],Ki (human β2-adrenoceptor) [µM]
"O=P(O)(COc1ccc(CCNC[C@H](O)COc2ccc(O)cc2)cc1)C1CCCCC1 [Example 29, (S)-4-{2-[2-Hydroxy-3-(4-hydroxyphenoxy)propylamino]ethyl}phenoxymethylcyclohexylphosphinic acid, lithium salt]",1.7,72,288,269
